Consider 3 molecules from patent US7314720B2, “Method of diagnosing non-alcoholic steatohepatitis (nash) using molecular markers” (One Way Liver Genomic, S.L., priority 2002, dated 2008).

The assay concerns PHB1. The assay is described as follows: PHB1 level regulation in cultured rat hepatocytes (Western blot). It is filed as cell-based. The settings on record: for effect on PHB1 levels: 24 h incubation under standard conditions, 100 μM methionine or 4 mM AdoMet in culture media. How it is done:
FIG. 5 illustrates PHB1 level regulation by AdoMet in cultured rat hepatocytes. PHB1 levels were measured in rat hepatocytes cultured for 12 or 24 hours in the presence or absence of 100 μM methionine, 4 mM AdoMet or 20 mM cycloleucine. Liver extracts (15 μg/lane) were analyzed by Western blotting using specific antibodies. To ensure equal loading, the membranes were stained with red Ponceau. A representative blot from three independent experiments is shown. Hepatocytes were isolated from male Wistar rats (200-250 g) by perfusion with collagenases, as previously described ([…]., et al., Gastroenterology, 1998, 114:364-371). Once isolated, hepatocytes were cultured according to García-Trevijano et al. […] Cell viability was measured by trypan blue exclusion, and no significant differences were observed between the controls and any of the different treatments performed in this study. Protein extraction and western blotting were performed as previously described ([…]., et al., Oncogene, 1995, 10:963-971; Ruiz, F., et al., Hepatology, 1998, 28:1051-1057). Briefly, equal amounts of protein (15 μg) were resolved in SDS/12.5% polyacrylamide gels. Proteins were electrophoretically transferred to nitrocellulose membranes. Membranes were probed with anti-MAT (Ruiz, F., et al., Hepatology, 1998, 28:1051-1057), anti-PHB1, anti-β ATPase and anti-COX I and II. A secondary antibody conjugated to horseradish peroxidase was used. Blots were developed by chemiluminescence (Dupont).
(In general: Immunoblotting shows a protein as a band on a membrane.)

For `NC1(C(=O)O)CCCC1` [CL, cycloleucine], the “down-regulation of PHB1” value (20 mM CL added to culture medium) is recorded as 55%.
With `CSCC[C@H](N)C(=O)O` [methionine], the “effect on PHB1 levels” value was “no effect”.
Consider `C[S+](CC[C@H](N)C(=O)[O-])C[C@H]1O[C@@H](n2cnc3c(N)ncnc32)[C@H](O)[C@@H]1O` (stereo partly shown) [AdoMet, S-adenosylmethionine], for which the “effect on PHB1 levels” value is on record as “no effect”. Where the note is “exogenous addition of 4 mM AdoMet after 12 hours culture in the absence of methionine”, the “decrease of PHB1 in the absence of methionine” value is reported as “prevented the decrease of PHB1”.
